Measured values as given in ChEMBL document CHEMBL2021885, “Triphenylbutanamines: kinesin spindle protein inhibitors with in vivo antitumor activity” (J Med Chem, 2012).
Calls of active or inactive are those of the source. The calls are words filed in the database; no cut-off is given here.

Target: T1, Kinesin-like protein KIF7 (Homo sapiens) (UniProt Q2M1P5)
T1 sequence (whole entry): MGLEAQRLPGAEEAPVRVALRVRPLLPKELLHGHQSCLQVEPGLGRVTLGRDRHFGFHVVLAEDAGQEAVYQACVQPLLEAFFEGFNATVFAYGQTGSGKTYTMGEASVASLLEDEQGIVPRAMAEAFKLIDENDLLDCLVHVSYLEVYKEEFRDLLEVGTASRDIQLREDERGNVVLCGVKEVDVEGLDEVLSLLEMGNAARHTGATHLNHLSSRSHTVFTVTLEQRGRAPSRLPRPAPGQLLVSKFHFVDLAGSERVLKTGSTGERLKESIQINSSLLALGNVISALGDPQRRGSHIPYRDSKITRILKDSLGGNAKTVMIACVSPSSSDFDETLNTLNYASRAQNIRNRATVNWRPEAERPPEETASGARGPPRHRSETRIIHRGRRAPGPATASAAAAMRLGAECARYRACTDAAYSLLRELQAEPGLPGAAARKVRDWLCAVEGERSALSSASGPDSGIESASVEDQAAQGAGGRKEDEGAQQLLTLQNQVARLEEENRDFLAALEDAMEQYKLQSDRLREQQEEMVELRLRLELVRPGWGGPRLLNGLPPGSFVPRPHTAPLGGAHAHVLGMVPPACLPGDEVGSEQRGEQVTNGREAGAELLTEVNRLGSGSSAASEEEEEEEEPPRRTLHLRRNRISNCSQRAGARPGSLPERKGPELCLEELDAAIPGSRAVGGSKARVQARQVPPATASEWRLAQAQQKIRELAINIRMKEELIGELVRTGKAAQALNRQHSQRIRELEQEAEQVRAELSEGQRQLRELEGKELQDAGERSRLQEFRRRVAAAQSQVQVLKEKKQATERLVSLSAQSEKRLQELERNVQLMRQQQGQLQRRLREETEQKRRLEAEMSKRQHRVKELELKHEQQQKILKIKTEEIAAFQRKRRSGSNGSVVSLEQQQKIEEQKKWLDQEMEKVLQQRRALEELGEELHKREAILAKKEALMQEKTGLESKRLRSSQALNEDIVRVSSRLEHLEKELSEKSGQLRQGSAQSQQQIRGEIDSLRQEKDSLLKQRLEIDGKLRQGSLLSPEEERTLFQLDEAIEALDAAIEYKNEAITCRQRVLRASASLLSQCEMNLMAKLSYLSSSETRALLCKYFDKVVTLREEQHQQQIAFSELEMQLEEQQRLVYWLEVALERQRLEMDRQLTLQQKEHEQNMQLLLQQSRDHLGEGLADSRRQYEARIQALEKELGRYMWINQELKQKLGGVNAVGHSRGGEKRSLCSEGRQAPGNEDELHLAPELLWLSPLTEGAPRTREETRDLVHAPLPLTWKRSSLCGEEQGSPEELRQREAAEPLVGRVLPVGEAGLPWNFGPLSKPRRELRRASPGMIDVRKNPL
Test: Inhibition of Kif7 ATPase activity

With Cc1cccc(C(CCC(N)C(=O)O)(c2ccccc2)c2ccccc2)c1 (racemic) the inhibition was “inactive”.
